Experimental data from PMC9730799, “Elucidation of the interactome of the sucrose transporter StSUT4: sucrose transport is connected to ethylene and calcium signalling” (Journal of Experimental Botany, 2022).

Molecular target: T1, StSUT4 (Solanum tuberosum, UniProt Q9FV92)
T1 construct: gene SUT4; StSUT4 cDNA in pDR196, expressed in yeast cells
T1 sequence (Q9FV92 1-500): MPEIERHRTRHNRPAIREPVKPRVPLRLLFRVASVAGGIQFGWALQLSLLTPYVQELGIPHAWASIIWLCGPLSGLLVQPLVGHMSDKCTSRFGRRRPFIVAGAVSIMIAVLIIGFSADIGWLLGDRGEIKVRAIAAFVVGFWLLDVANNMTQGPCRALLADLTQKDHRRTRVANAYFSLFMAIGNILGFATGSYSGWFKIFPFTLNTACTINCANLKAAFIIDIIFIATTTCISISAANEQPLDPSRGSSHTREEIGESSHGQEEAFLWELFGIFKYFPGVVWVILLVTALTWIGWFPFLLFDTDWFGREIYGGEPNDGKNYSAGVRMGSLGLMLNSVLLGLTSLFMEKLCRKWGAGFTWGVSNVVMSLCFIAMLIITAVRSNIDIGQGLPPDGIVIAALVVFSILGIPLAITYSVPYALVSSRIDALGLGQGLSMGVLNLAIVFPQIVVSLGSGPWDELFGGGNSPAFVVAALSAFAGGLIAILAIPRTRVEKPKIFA
Test: competition with esculin uptake in yeast, fluorescence
Type: cell-based
Details: 8 mM esculin, pH 5.0, 20 mM unlabelled sucrose

With OC[C@H]1O[C@@](CO)(O[C@H]2O[C@H](CO)[C@@H](O)[C@H](O)[C@H]2O)[C@@H](O)[C@@H]1O [sucrose] the “% inhibition at 20 mM” value was “~ almost 50%”.
